Experimental findings from patent EP3868759A1, “2,3,5-SUBSTITUTED PYRROLO[2,3-B]PYRIDINES AS ERBB MODULATORS USEFUL FOR TREATING CANCER” (PearlRiver Bio GmbH, priority 2020, dated 2021) are described below.

Structures are written as SMILES. Where only a bound is given, the exact number is not on record here.

One experiment has as its target EGFR (del746-750) (Homo sapiens, UniProt P00533, DEL746-750). Kind of experiment: Lance assay, EGFR (del746-750). Particulars: biochemical Lance assay.
In experiment [1] the test system is Her2 Exon 20 InsYVMA Ba/F3. Kind of experiment: CellTiter-Glo cell viability, Her2 Exon 20 InsYVMA Ba/F3. Format: cell-based. Particulars: Mus musculus, BaF3, 72 h, read-out: Her2 Exon 20 InsYVMA Ba/F3 CTG IC50. The method in brief:
(§1)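 Viable cell number was estimated from cellular ATP by luminescence following 72 h treatment with serially varied compound concentrations. IC50 was derived by dose-response fitting, with DMSO-treated and 10 µM staurosporine-treated cells defining the signal window.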
For orientation: Cellular ATP, detected with luciferase, serves as a proxy for viable cell number.

A further experiment addresses EGFR T790M L858R (Homo sapiens, UniProt P00533, L858R/T790M). The experiment in a line: Lance assay, EGFR T790M L858R. Particulars: biochemical Lance assay.
The target in another experiment is EGFR L858R (Homo sapiens, UniProt P00533, L858R). The experiment in a line: Lance assay, EGFR L858R. Particulars: biochemical Lance assay.
In the next experiment the test system is EGFR L858R Ba/F3. Kind of experiment: CellTiter-Glo cell viability, EGFR L858R Ba/F3. The experiment is classed as cell-based. Particulars: Mus musculus, BaF3, 72 h, read-out: EGFR L858R Ba/F3 CTG IC50 /. The method, then: (§2) The CellTiter-Glo Luminescent Cell Viability Assay (Promega) is a homogeneous method of determining the number of viable cells in culture. It is based on quantification of ATP, indicating the presence of metabolically active cells. Cells are seeded on day 1 at cell numbers that assure assay linearity and optimal signal intensity. After incubation for 24h in humidified chambers at 37°C and 5% CO2, compounds in DMSO are added at different concentrations. Cells are further incubated for 72 h at 37°C and 5% CO2. Cells treated with the compound vehicle DMSO are used as positive controls and cells treated with 10 µM Staurosporine serve as negative controls. At day 5 the CellTiter Glo Reagent is prepared according to the instructions of the kit (Promega Inc.): Reagent is mixed 1:1 with cell culture medium. Thereon, mixture and assay plates are equilibrated at room temperature for 20 min. Equal volumes of the reagent-medium-mixture is added to the volume of culture medium present in each well. The plates are mixed at ∼200 rpm for 2 minutes on an orbital shaker. The microplates are then incubated at room temperature for 10 minutes for stabilization of the luminescent signal. Following incubation the luminescence is recorded on a Victor microplate reader (Perkin Elmer) using a 200 ms integration time. The data is then analyzed with Excel using the XLFIT Plugin (dose response Fit 205) for IC50-determination. As quality control the Z'-factor is calculated from 16 positive and negative control values. Only assay results showing a Z'-factor ≥ 0.5 are used for further analysis.

In another experiment the target is EGFR wt (Homo sapiens, UniProt P00533). Kind of experiment: Lance assay, EGFR wt. Particulars: biochemical Lance assay.
Sequence of EGFR wt (P00533 25-1210): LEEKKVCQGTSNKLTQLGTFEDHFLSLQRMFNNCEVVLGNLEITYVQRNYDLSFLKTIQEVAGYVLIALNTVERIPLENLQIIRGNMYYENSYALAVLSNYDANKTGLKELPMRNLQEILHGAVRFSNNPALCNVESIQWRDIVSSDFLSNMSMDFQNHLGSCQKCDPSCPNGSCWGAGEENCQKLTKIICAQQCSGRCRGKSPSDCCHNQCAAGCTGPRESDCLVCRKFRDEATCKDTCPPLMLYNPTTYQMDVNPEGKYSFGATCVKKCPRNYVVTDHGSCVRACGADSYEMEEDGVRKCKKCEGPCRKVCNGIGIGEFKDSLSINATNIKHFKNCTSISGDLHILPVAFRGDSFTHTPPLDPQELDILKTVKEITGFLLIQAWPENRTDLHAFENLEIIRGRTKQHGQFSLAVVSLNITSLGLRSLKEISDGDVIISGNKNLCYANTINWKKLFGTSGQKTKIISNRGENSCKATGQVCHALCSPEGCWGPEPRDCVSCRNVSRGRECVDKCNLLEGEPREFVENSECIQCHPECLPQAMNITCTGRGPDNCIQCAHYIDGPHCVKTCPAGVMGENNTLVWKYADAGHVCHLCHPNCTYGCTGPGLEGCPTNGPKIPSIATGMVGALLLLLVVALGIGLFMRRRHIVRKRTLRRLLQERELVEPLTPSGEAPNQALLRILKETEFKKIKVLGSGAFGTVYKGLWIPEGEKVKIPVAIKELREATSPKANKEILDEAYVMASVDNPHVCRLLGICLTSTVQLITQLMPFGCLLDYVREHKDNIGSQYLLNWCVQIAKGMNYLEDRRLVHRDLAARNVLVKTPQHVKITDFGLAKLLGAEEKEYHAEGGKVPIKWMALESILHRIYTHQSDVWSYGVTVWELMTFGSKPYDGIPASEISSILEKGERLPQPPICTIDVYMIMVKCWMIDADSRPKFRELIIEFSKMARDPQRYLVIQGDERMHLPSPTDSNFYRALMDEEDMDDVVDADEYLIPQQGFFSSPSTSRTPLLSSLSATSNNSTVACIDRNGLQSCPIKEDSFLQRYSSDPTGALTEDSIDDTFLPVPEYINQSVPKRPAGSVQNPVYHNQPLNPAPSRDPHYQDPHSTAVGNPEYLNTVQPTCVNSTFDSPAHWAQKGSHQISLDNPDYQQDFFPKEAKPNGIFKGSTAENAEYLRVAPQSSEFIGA
For another experiment, the target named is T1, HER2 INS YVMA (Homo sapiens, UniProt P04626, INS775YVMA).
T1 construct: purchased DPF
T1 sequence (P04626 with tags, fused parts or gaps INS775YVMA): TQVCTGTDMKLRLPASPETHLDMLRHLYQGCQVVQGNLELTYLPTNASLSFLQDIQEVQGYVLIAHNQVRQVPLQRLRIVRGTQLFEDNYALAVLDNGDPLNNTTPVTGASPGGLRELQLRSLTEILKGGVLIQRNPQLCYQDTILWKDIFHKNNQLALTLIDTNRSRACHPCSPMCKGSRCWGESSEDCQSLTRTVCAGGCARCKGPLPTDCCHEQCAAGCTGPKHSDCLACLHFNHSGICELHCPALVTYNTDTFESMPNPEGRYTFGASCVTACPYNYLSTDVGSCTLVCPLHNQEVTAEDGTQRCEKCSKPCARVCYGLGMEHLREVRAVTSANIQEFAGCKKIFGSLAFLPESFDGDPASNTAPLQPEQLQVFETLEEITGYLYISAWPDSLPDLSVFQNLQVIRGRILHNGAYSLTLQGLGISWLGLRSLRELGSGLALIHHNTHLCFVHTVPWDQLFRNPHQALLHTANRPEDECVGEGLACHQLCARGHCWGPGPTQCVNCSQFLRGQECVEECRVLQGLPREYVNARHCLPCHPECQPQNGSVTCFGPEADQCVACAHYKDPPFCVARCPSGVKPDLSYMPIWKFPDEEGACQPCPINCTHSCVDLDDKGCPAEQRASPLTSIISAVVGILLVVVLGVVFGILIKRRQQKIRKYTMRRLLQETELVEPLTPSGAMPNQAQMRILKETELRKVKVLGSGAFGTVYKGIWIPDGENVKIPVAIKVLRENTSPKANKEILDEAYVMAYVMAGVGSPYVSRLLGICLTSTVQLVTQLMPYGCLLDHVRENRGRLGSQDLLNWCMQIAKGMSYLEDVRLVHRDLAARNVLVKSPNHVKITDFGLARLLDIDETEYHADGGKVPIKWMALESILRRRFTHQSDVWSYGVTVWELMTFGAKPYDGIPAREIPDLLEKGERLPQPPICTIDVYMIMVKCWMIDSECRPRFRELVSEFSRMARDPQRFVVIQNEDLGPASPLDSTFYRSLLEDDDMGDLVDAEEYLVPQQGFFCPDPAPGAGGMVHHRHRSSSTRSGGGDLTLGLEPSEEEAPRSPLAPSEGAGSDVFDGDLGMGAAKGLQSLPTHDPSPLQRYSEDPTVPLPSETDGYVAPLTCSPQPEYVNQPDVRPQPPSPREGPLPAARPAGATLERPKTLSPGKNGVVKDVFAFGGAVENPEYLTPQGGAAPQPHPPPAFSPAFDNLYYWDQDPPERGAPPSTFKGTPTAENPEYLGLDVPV
The experiment in a line: Lance Kinase Activity Assay, Her2 Exon 20 InsYVMA. The settings on record: biochemical Lance assay. The gist of the method:
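TR-FRET (LANCE) assay: HER2 ex20 YVMA kinase phosphorylates ULight-peptide; compounds in 8-point 1:3 dilutions from 10 mM DMSO stock; ATP-started, 1 h at room temperature, stopped with EDTA plus Eu-anti-phosphopeptide antibody, 1 h more. Read 665/615 nm emission; IC50 from sigmoidal dose-response curves.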

For the next experiment, the system named is Cuto-17. The experiment in a line: CellTiter-Glo cell viability, Cuto-17. The experiment is classed as cell-based. Particulars: CUTO17, 72 h, read-out: Cuto-17 CTG IC50. The method, then: as §2
In experiment [2] the test system is EGFR Exon 20 InsNPH Ba/F3. Kind of experiment: CellTiter-Glo cell viability, EGFR Exon 20 InsNPH Ba/F3. Format: cell-based. The settings on record: Mus musculus, BaF3, 72 h, read-out: EGFR Exon 20 InsNPH Ba/F3 CTG IC50. The method in brief: as §1
A further experiment concerns EGFR L858R T790M Ba/F3. The experiment in a line: CellTiter-Glo cell viability, EGFR L858R T790M Ba/F3. The experiment is classed as cell-based. The settings on record: Mus musculus, BaF3, 72 h, read-out: EGFR L858R T790M Ba/F3 CTG IC50 /. On the procedure: as §2
The next experiment relates to H1975. The experiment in a line: CellTiter-Glo cell viability, H1975. Particulars: Homo sapiens, NCI-H1975, 72 h, read-out: H1975 CTG IC50. The experiment is classed as cell-based. On the procedure: as §2
The subject of a further experiment is EGFR vIII Ba/F3. The experiment in a line: CellTiter-Glo cell viability, EGFR vIII Ba/F3. Format: cell-based. The settings on record: Mus musculus, BaF3, 72 h, read-out: EGFR vIII Ba/F3 CTG IC50 /. The gist of the method:
as §1

The test system of the next experiment is A431. The experiment in a line: CellTiter-Glo cell viability, A431. Format: cell-based. Particulars: Homo sapiens, A-431, 72 h, read-out: A431 CTG IC50. The gist of the method:
as §1

Sequence of EGFR T790M L858R (P00533 25-1210 T790M/L858R): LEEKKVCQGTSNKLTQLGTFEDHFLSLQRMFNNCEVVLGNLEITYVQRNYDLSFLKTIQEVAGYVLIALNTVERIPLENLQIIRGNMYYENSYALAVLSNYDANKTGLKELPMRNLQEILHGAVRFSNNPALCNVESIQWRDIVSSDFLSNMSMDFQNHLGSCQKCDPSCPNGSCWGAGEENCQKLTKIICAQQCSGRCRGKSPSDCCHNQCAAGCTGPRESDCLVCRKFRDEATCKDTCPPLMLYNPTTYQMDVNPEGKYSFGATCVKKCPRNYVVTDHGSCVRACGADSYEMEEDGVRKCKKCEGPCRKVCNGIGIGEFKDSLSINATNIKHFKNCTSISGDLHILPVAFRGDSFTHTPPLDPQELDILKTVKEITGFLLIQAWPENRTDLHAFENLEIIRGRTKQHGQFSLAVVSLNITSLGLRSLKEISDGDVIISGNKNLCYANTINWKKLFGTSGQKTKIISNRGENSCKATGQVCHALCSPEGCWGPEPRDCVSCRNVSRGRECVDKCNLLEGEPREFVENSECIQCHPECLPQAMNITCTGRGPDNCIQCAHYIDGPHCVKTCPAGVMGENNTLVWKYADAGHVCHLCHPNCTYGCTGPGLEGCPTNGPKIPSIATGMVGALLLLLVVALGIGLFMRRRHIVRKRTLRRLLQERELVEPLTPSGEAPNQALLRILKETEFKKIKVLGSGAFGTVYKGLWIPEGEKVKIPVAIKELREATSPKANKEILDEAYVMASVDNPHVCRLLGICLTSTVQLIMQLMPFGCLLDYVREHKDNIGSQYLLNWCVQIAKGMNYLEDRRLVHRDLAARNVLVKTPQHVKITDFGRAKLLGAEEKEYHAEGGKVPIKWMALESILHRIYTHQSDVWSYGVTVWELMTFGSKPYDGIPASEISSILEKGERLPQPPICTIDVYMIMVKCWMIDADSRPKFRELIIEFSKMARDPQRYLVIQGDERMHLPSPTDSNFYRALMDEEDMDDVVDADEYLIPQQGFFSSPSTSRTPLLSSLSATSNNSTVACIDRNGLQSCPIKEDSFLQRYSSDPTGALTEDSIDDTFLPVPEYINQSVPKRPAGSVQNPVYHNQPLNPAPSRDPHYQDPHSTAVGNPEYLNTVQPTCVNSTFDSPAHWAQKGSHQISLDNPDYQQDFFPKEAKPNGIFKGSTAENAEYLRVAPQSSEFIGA
Sequence of EGFR (del746-750) (P00533 with tags, fused parts or gaps DEL746-750): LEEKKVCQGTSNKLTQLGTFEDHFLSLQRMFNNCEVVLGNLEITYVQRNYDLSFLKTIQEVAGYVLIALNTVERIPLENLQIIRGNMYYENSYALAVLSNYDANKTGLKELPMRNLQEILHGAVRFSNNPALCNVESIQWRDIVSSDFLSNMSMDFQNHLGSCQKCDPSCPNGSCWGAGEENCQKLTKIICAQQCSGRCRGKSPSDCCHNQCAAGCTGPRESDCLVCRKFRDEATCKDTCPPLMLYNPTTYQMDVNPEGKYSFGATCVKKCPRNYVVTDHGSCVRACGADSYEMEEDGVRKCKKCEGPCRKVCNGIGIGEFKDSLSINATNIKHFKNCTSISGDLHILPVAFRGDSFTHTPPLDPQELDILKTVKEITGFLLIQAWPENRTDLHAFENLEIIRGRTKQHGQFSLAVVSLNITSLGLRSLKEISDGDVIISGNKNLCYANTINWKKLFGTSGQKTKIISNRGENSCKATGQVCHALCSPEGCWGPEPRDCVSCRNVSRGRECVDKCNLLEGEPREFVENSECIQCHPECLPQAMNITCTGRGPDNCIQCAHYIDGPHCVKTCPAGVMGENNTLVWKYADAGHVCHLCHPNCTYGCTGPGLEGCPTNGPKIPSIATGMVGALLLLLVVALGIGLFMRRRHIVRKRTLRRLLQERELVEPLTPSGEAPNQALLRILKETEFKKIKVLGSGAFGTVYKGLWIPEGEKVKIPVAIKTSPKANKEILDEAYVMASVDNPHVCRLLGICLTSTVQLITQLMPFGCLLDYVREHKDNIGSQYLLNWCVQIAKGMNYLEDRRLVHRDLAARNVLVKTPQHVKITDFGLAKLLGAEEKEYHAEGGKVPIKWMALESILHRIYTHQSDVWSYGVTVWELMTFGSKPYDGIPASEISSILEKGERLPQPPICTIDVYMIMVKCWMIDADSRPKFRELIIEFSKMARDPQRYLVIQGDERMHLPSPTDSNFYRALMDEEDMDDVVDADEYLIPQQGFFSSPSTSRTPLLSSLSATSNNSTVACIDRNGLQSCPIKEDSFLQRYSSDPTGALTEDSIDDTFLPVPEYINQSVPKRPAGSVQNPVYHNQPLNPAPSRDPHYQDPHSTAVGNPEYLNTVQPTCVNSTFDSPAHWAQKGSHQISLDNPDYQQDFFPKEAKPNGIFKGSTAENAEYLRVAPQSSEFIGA

Consider `C=CC(=O)Nc1cc(-c2c(-c3cnn(C)c3)[nH]c3ncc(OCC(C)C)cc23)ccc1C` [Example 4, N-(5-(5-isobutoxy-2-(1-methyl-1H-pyrazol-4-yl)-1H-pyrrolo[2,3-b]pyridin-3-yl)-2-methylphenyl)acrylamide 2,2,2-trifluoroacetate], for which the IC50 against EGFR (del746-750) was ≤ 50 nM; in [1], 100 to 500 nM; against EGFR T790M L858R, 50 to 100 nM; against EGFR L858R, ≤ 50 nM; in the experiment on EGFR L858R Ba/F3 it was ≤ 50 nM; on EGFR wt it was ≤ 50 nM. The IC50 against HER2 INS YVMA is 50 to 100 nM; with Cuto-17, 100 to 500 nM; in experiment [2], 100 to 500 nM; with EGFR L858R T790M Ba/F3, ≤ 50 nM; in the experiment with H1975, 100 to 500 nM; with EGFR vIII Ba/F3, ≤ 50 nM. In addition, in the experiment on A431, the IC50 fell in the range of 1 to 10 µM.
On to `C=CC(=O)Nc1cc(-c2c(-c3cnn(CCN(C)C)c3)[nH]c3ncc(C(=O)OC(C)C)c(C)c23)ccc1C` [Example 15, isopropyl 3-(3-acrylamido-4-methylphenyl)-2-(1-(2-(dimethylamino)ethyl)-1 H-pyrazol-4-yl)-4-methyl-1 H-pyrrolo[2,3-b]pyridine-5-carboxylate], for which the IC50 is ≤ 50 nM against EGFR (del746-750); 100 to 500 nM in [1]; ≤ 50 nM at EGFR T790M L858R; ≤ 50 nM against EGFR L858R; ≤ 50 nM with EGFR L858R Ba/F3; ≤ 50 nM against EGFR wt. Also, the IC50 is ≤ 50 nM against HER2 INS YVMA; 100 to 500 nM in the experiment on Cuto-17; 50 to 100 nM in experiment [2]; ≤ 50 nM in the experiment on EGFR L858R T790M Ba/F3; 100 to 500 nM in the experiment with H1975; 50 to 100 nM in the experiment with EGFR vIII Ba/F3. Also, the IC50 in the experiment with A431 lay within 1 to 10 µM.
Take `C=CC(=O)Nc1cc(-c2c(-c3cnn(CC)c3)[nH]c3ncc(C(=O)OC(C)C)cc23)cc(F)c1C` [Example 5, isopropyl 3-(3-acrylamido-5-fluoro-4-methylphenyl)-2-(1-ethyl-1 H-pyrazol-4-yl)-1H-pyrrolo[2,3-b]pyridine-5-carboxylate]: the IC50 was ≤ 50 nM against EGFR (del746-750); 50 to 100 nM in experiment [1]; ≤ 50 nM against EGFR T790M L858R; ≤ 50 nM on EGFR L858R; ≤ 50 nM in the experiment on EGFR L858R Ba/F3; ≤ 50 nM against EGFR wt. Moreover, the IC50 is 50 to 100 nM on HER2 INS YVMA; 100 to 500 nM in the experiment on Cuto-17; 50 to 100 nM in experiment [2]; ≤ 50 nM in the experiment on EGFR L858R T790M Ba/F3; 500 to 1000 nM in the experiment on H1975; 100 to 500 nM with EGFR vIII Ba/F3. Also, the IC50 with A431 fell in the range of 1 to 10 µM.
`C=CC(=O)Nc1cc(-c2c(-c3cnn(C)c3)[nH]c3ncc(C(=O)OC(C)C)c(C)c23)ccc1C` [Example 7, isopropyl 3-(3-acrylamido-4-methylphenyl)-4-methyl-2-(1-methyl-1H-pyrazol-4-yl)-1H-pyrrolo[2,3-b]pyridine-5-carboxylate2,2,2-trifluoroacetate]: the IC50 is ≤ 50 nM at EGFR (del746-750); 100 to 500 nM in [1]; ≤ 50 nM on EGFR T790M L858R; ≤ 50 nM on EGFR L858R; ≤ 50 nM in the experiment with EGFR L858R Ba/F3; ≤ 50 nM against EGFR wt. Also, the IC50 fell in the range of 100 to 500 nM at HER2 INS YVMA; 100 to 500 nM in the experiment on Cuto-17; 50 to 100 nM in [2]; 50 to 100 nM in the experiment on EGFR L858R T790M Ba/F3; 100 to 500 nM in the experiment with H1975; 50 to 100 nM with EGFR vIII Ba/F3. Besides, the IC50 in the experiment on A431 lay in the range of 1 to 10 µM.
Consider `C=CC(=O)Nc1cc(-c2c(-c3cnn(C)c3)[nH]c3ncc(C(=O)OC(C)C)cc23)ccc1C` [Example 1, Isopropyl 3-(3-acrylamido-4-methylphenyl)-2-(1-methyl-1H-pyrazol-4-yl)-1H-pyrrolo[2,3-b]pyridine-5-carboxylate 2,2,2-trifluoroacetate], for which the IC50 against EGFR (del746-750) is ≤ 50 nM; in [1], 100 to 500 nM; against EGFR T790M L858R, ≤ 50 nM; at EGFR L858R, ≤ 50 nM; with EGFR L858R Ba/F3 it was ≤ 50 nM; on EGFR wt, ≤ 50 nM. For the same compound, the IC50 against HER2 INS YVMA is 50 to 100 nM; in the experiment on Cuto-17, 500 to 1000 nM; in experiment [2], 100 to 500 nM; in the experiment with EGFR L858R T790M Ba/F3, ≤ 50 nM; with H1975, 500 to 1000 nM; in the experiment with EGFR vIII Ba/F3, 100 to 500 nM. Moreover, the IC50 in the experiment on A431 was 1 to 10 µM.
